{
  "source": "patent US5925333A",
  "about": "“Methods for modulation of lipid uptake” (Massachusetts Institute of Technology, priority 1995, dated 1999)",
  "key": {"[1]": {"target": "murine scavenger receptor protein type BI (mSR-BI) (murine)"}, "[2]": {"target": "murine scavenger receptor protein type BI (mSR-BI) (murine)", "remark": "listed apart in the source"}, "SR-BI": {"tested_on": "SR-BI", "assay": "Immunoblot of SR-BI expression in tissues of estrogen-treated rats", "type": "in vivo, rat", "conditions": "5 mg/kg subcutaneous for five consecutive days", "description": "To determine the size of mSR-BI and its tissue distribution, a rabbit anti-mSR-BI polyclonal antibody was prepared by immunization of a 16 amino acid peptide (residues 495 to 509 from the predicted protein sequence of mSR-BI plus an additional N-terminal cysteine) coupled to keyhole limpet hemocyanin. This is referred to as anti-mSR-BI^495 antiserum. The antiserum was used for immunoblot analysis of cultured cells and murine tissues.\nPost-nuclear cell extracts from ldlA and ldlA[mSR-BI] cells and membranes (post-nuclear 100,000×g pellets) from murine tissues were isolated, reduced, and separated by 6.5% SDS-polyacrylamide gel electrophoresis (50 μg protein/lane), transferred to nitrocellulose and probed with a primary anti-mSR-BI^495 antipeptide antibody (rabbit IgG fraction, 1:5000 dilution) and developed using a horseradish peroxidase labeled second antibody and ECL kit (5 min exposure, Amersham). Ponceau S staining was used as a control for gel loading and transfer.\nTissues of estrogen-treated rats were screened for expression of SR-BI as described above following treatment of rats with 17-α-ethylenyl estradiol (estrogen). The rats were treated for five consecutive days with subcutaneous injections of 5 mg/kg 17-α-ethylenyl estradiol in propylene glycol or with propylene glycol alone (sham-injected)."}, "adrenal tissues": {"tested_on": "adrenal tissues", "assay": "Uptake of lipid from fluorescently labeled HDL injected into estrogen-treated rats, adrenal", "type": "in vivo, rat", "conditions": "fluorescently labeled HDL injected into estrogen-treated vs sham-injected rats"}, "LDL receptor": {"tested_on": "LDL receptor", "assay": "Immunoblot of LDL receptor expression in estrogen-treated rats", "type": "in vivo, rat", "conditions": "5 mg/kg subcutaneous for five consecutive days, vs sham, liver"}, "liver cells": {"tested_on": "liver cells", "assay": "Uptake of lipid from fluorescently labeled HDL injected into estrogen-treated rats, liver", "type": "in vivo, rat", "conditions": "fluorescently labeled HDL injected into estrogen-treated vs sham-injected rats"}},
  "data": [
    {"substance": "high density lipoprotein (HDL) prepared from human plasma (from UniProt P02647)", "values": [
      {"measurement": "cell association of the lipid-labeled component of HDL (3H-cholesteryl oleate or DiI)", "setting": "[1]", "result": 18, "unit": "%"},
      {"measurement": "total cellular cholesterol (free and esterified) after incubation with unlabeled HDL (20 µg protein/ml, 5 hrs)", "setting": "[2]", "result": 20, "unit": "% increase"}
    ]},
    {"substance": "17-α-ethylenyl estradiol [estrogen]", "values": [
      {"measurement": "SR-BI expression in liver", "setting": "SR-BI; vs sham, liver", "result": "dramatically downregulated"},
      {"measurement": "SR-BI levels in tissues showing trace signal", "setting": "SR-BI; vs sham, lung, testes and skin", "result": "no change"},
      {"measurement": "SR-BI expression in rat adrenal membranes", "setting": "SR-BI; vs sham-injected controls, adrenal membranes", "result": "upregulation"},
      {"measurement": "Uptake of lipid into adrenal tissues", "setting": "adrenal tissues", "result": "dramatically increased"},
      {"measurement": "LDL receptor expression", "setting": "LDL receptor", "result": "tremendous upregulation"},
      {"measurement": "Uptake of HDL-derived lipids into liver cells", "setting": "liver cells", "result": "no similar uptake"}
    ]}
  ]
}
